Laboratory results from patent publication US20100297109A1, “METHODS FOR INHIBITING FASCIN” (Cornell University, priority 2007, published 2010).

Legend:
[1] = test system: 4T1 cells; details: serum, Shan et al. 2005; cited from earlier work
[2] = biological target: fascin (Homo sapiens, UniProt Q16658); assay: Electron microscopy of fascin-induced F-actin bundles; format: biochemical; parameters: GST (N); made in house; host or cells: Escherichia coli BL21
[3] = biological target: T1, fascin His474 to Ala mutant (Homo sapiens, UniProt Q16658, H474A); assay: Actin bundling assay with fascin H474A mutant; format: biochemical
T1 construct: GST (N, cleaved yes); made in house; host or cells: Escherichia coli BL21 (pGEX4T-Fascin1)
Text: Identification of fascin as the protein target of migrastatin analogs. Whole cell lysates from 4T1 mouse breast tumor cells were made. After preclearing the cell lysate with immobilized neutravidin biotin binding protein (Pierce, IL, USA) to remove biotin and avidin-binding proteins, the cell lysates were loaded to a column packed with the biotin-labeled macroketone (conjugated to neutravidin beads). A control column packed with free biotin and neutravidin beads was run side-by-side. After washing the column with 10 bed volumes of lysis buffer with 300 mM NaCl, the bound proteins were eluted with 0.1 M Glycine-HCl at pH 2.8 according to the manufacturer's instruction. […] A 1-liter culture was grown to an A600 reading of 1.0 and then induced by addition of 0.3 mM isopropyl 1-thio-D-galactopyranoside (IPTG) for 12 hours at 25° C. […] Actin bundling activity was measured by low speed centrifugation assay and fluorescence microscopy. […] Both supernatants and pellets were dissolved in an equivalent volume of SDS sample buffer, and the amount of actin was determined by SDS-PAGE. For fluorescence microscopy, monomeric G-actin was polymerized as described above. […] The samples were mounted between a slide and a coverslip coated with poly-lysine and imaged by fluorescence microscopy. […] Both supernatants and pellets were dissolved in an equivalent volume of SDS sample buffer and analyzed by SDS-PAGE. […]

[4] = biological target: T2, villin (Homo sapiens, UniProt P09327); assay: Binding of macroketone to villin in vitro
T2 sequence (P09327 1-827): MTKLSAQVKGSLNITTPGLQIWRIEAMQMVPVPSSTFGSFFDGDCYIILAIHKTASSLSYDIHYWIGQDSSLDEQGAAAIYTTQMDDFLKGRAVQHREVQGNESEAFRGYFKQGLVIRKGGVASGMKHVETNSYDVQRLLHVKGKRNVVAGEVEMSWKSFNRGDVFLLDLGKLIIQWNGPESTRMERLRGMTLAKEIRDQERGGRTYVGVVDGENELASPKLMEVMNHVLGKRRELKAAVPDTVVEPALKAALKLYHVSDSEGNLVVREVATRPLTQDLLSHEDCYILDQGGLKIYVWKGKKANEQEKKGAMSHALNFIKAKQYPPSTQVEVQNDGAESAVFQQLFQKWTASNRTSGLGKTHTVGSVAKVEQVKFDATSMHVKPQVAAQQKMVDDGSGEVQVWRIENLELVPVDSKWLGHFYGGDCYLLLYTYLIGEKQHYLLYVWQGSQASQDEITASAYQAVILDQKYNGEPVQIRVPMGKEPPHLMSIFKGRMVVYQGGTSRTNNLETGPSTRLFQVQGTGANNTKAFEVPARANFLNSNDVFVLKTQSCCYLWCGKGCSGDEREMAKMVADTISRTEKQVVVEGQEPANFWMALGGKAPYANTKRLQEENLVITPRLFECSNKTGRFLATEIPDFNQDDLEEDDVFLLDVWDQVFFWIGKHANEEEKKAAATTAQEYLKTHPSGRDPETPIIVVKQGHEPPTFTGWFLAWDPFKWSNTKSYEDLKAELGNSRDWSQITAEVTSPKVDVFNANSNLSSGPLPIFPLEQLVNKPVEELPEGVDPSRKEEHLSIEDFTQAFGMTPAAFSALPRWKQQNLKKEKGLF

## COC1C=CCCCCC(=O)CCC(C)=CC(C)C1O (stereo not shown) [macroketone, Migrastatin ketone]
[1]
  formation of lamellipodia at the leading edge: inhibited the formation of lamellipodia
[2]
  thickness of actin bundles: decreased the thickness of the bundles
[3]
  sensitivity of actin bundling activity of fascin mutant: resistant
[4]
  binding to villin in vitro: did not bind
